Results: US11634366B2, “Plant growth enhancer using carbon dioxide to increase plant yield and method of increasing plant yield” (Innovations for World Nutrition, LLC, priority 2020, dated 2023)

Legend:
[1] = test system: Oryza sativa long grain rice variety LaKast; experiment: Example 2 carbon dioxide in air bubbled into root zone of paddy rice: root weights and rough rice yield at harvest; assay type: in vivo; conditions: for % Difference (root weight vs Air) / Dry Root Weight: at harvest; for Dry Root Weight: average of two containers; for Rough Rice Yield Weight: dry weight at harvest
Protocol: (§1) Example 2 tests were conducted to test whether carbon dioxide alone delivered to the roots of rice plants improves the rough rice yield and the root growth. For this example Oryza sativa long grain rice variety LaKast™ seed treated with CruiserMaxx® (an insecticide and fungicide) was carefully selected as representative of all rice grown commercially and provides an excellent model for testing commercial rice.
(§2) For the Example 2 tests, carbon dioxide diluted with air in selected amounts was bubbled into the root zone of paddy rice. The rice was planted in 18.9 L (5 gallon) containers which are 30.5 cm (12 inches) in diameter and 35.6 cm (14 inches) deep, and sets of 8 containers all received the same gas mixture. The tests were designed to end after 17 weeks, but some containers were removed earlier to visually check the roots for amount of growth.
(§3) For the Example 2 tests, the following gas mixtures were used: Air • 0.2% carbon dioxide in air • 0.5% carbon dioxide in air • 1.0% carbon dioxide in air • 2.0% carbon dioxide in air • 5.0% carbon dioxide in air • Note: 0.2% is approximately 5 times the amount of carbon dioxide currently found naturally in air
(§4) 18.9 L (5 gallon) containers were prepared by placing an aquatic gas diffuser attached to tubing at the bottom of each container and then filling the container 10.2 cm (4 inches) from the top with sieved top soil. The containers were placed on tables in a greenhouse in groups of eight so that all received approximately the same amount of light. Each group of eight containers was attached to a tank of gas with the gas being supplied through a regulator to a flow meter and then to a set of eight valves with each one controlling the gas mixture to a single container. A total of forty-eight containers were prepared, and twenty-four containers were placed on each table. Starter phosphorus was added to the soil by mixing 1.7 g of triple super phosphate into the top 7.6 cm (3 inches) of soil in each container. Soil was also given addition starter fertilizer by dissolving 150 g of urea (for nitrogen), 132 g of potassium chloride (for potassium), and 1236 g of Epsom salts (magnesium sulfate heptahydrate for magnesium) in 12 liters of water. Each container was then given 200 mL of this solution. Later, zinc was added using zinc sulfate. The containers were flooded to 1.3 cm (0.5 inches) above the surface of the soil using collected rainwater. On May 20, 2016, the rice seed was presoaked for 24 hours and then drained for 24 hours was dropped on the surface of the soil in each container. After the rice was established, the plants were thinned to 10 plants per container. At a later date, the plants were thinned again to six plants per container. The gas mixtures to the containers were started on May 20, 2016 and adjusted to an initial flow meter setting of 42.5 liters/hr. (1.5 ft^3/hr.) with a steady flow of bubbles in each container. The flow rate was turned down to 14.2 liters/hr. (0.5 ft^3/hr.) on Jun. 14, 2016. The gas flow was supplied each weekday from 8:00 am to noon. During the testing, fans in the greenhouse created a constant airflow to prevent carbon dioxide concentration around a particular group of plants.
On Jun. 20, 2016, the rice plants of Example 2 were thinned to six plants per container. On Aug. 1, 2016, additional nitrogen and triple super phosphate (TSP) was added to each container at the rate of 0.57 g TSP in all containers, 0.87 g of urea per container being fed normal air, and 2.27 g ammonium bicarbonate (equivalent nitrogen content as 0.87 g of urea) for the rest of the containers. This introduction of nitrogen and phosphates was to ensure no limitation in nitrogen and phosphorus for the plants and therefore ensure the testing validity of introducing carbon dioxide as a gas to the roots of the plants.
The rough rice for the Example 2 tests was harvested on Sep. 19, 2016. The rough rice was separated, and dried for seven days at 40° C. […]

[2] = test system: Oryza sativa long grain rice variety LaKast; experiment: Example 2 carbon dioxide in air bubbled into root zone of paddy rice: roots and foliage at 24 days; assay type: in vivo; conditions: for Dry Foliage Weight: total of ten plants; for Dry Root Weight: total of ten plants of one container; for % Difference in Total Nitrogen Uptake: vs air
Protocol: as §1, §2, §3, §4
On May 25, 2016, 10.6 g of zinc sulfate was dissolved in 10 L of water and each container was given 200 mL of this solution. As the plants grew, the flood waters were gradually raised until they reached a depth of three inches above the soil surface. A flood water depth of 5.1 to 7.6 cm (2 to 3 inches) was maintained for the remainder of the test. On Jun. 13, 2016, one front container (containing 10 plants each) for each level of carbon dioxide was withdrawn for measurement and the plants were gently removed and thoroughly cleaned. The plants and roots were then dried in an oven overnight at 80° C. The next day, the roots were trimmed and weighed. Table 6 presents the total root weights and total foliage weights of the ten plants for each container of plants. […]

O=C=O [CO2, carbon dioxide]
% Difference (rough rice yield vs Air) ([1]; 0.2% CO2 in air): 2.9%
% Difference (root weight vs Air) ([1]; 0.2% CO2 in air): +35.8%
Dry Root Weight ([1]; 0.2% CO2 in air): 62.5 g
Rough Rice Yield Weight ([1]; 0.2% CO2 in air): 91.5 g
% Difference (rough rice yield vs Air) ([1]; 0.5% CO2 in air): 6.1%
% Difference (root weight vs Air) ([1]; 0.5% CO2 in air): +6.4%
Dry Root Weight ([1]; 0.5% CO2 in air): 49.0 g
Rough Rice Yield Weight ([1]; 0.5% CO2 in air): 94.3 g
% Difference (rough rice yield vs Air) ([1]; 1.0% CO2 in air): 11.9%
% Difference (root weight vs Air) ([1]; 1.0% CO2 in air): +9.6%
Dry Root Weight ([1]; 1.0% CO2 in air): 50.4 g
Rough Rice Yield Weight ([1]; 1.0% CO2 in air): 99.5 g
% Difference (rough rice yield vs Air) ([1]; 2.0% CO2 in air): 11.9%
% Difference (root weight vs Air) ([1]; 2.0% CO2 in air): +11.1%
Dry Root Weight ([1]; 2.0% CO2 in air): 51.1 g
Rough Rice Yield Weight ([1]; 2.0% CO2 in air): 99.5 g
% Difference (rough rice yield vs Air) ([1]; 5.0% CO2 in air): −3.0%
% Difference (root weight vs Air) ([1]; 5.0% CO2 in air): +20.7%
Dry Root Weight ([1]; 5.0% CO2 in air): 55.5 g
Rough Rice Yield Weight ([1]; 5.0% CO2 in air): 86.2 g
average root weights at harvest compared with plants receiving just air ([1]; all containers receiving elevated carbon dioxide at roots, in words): higher
grain yields compared with plants receiving just air ([1]; elevated carbon dioxide, with the exception of 5.0% carbon dioxide mixed with air, in words): higher
% Difference of Root Weight as Compared to Air ([2]; 0.5% CO2 in air): 0%
Total Nitrogen Uptake by Foliage ([2]; 0.5% CO2 in air): 0.156 g
Dry Foliage Weight ([2]; 0.5% CO2 in air): 3.48 g
Dry Root Weight ([2]; 0.5% CO2 in air): 1.26 g
% Difference in Total Nitrogen Uptake ([2]; 0.5% CO2 in air): 8.33%
Total Nitrogen Uptake by Foliage ([2]; 2.0% CO2 in air): 0.151 g
Dry Foliage Weight ([2]; 2.0% CO2 in air): 3.43 g
Dry Root Weight ([2]; 2.0% CO2 in air): 2.08 g
% Difference in Total Nitrogen Uptake ([2]; 2.0% CO2 in air): 4.86%
weight of the foliage compared with container receiving solely air ([2]; each container receiving elevated carbon dioxide, in words): slightly more
